Test results as given in ChEMBL document CHEMBL4616670, “Phosphine Oxides from a Medicinal Chemist's Perspective: Physicochemical and in Vitro Parameters Relevant for Drug Discovery” (J Med Chem, 2020).
Values after ≈ are worked out from the molar mass of the structure shown.

Key:
in vitro [1] = details: human, liver microsomes
Description: Stability in human liver microsomes at 1 uM incubated prior to NADPH addition by LC-MS/MS analysis relative to hepatic blood flow

in vitro [2] = details: human, Caco-2
Description: Efflux ratio of permeability in human Caco2 cells measured up to 2 hrs by LC-MS/MS analysis or scintillation counting method

in vitro [3] = details: human, liver microsomes; remark: listed apart in the source
Description: Half life in human liver microsomes at 1 uM incubated prior to NADPH addition by LC-MS/MS analysis

in vitro [4] = details: human, Caco-2; remark: listed apart in the source
Description: Permeability across apical to basolateral side in human Caco2 cells measured up to 2 hrs by LC-MS/MS analysis or scintillation counting method

physchem [5] = details: octanol/water, pH 11
Description: Octanol/water partition coefficient, log D of the compound at pH 11

physchem [6] = details: pH 6.8 buffer
physchem [7] = details: octanol/water, pH 2
Description: Octanol/water partition coefficient, log D of the compound at pH 2

physchem [8] = details: pH 6.8 buffer; remark: listed apart in the source
physchem [9] = details: MeOH/HCl solution
Description: Chemical stability of the compound in MeOH/HCl solution at pH <1 assessed as compound decomposition measured after 7 days by UV-RP-HPLC analysis

[10] = 168 h
Description: Chemical stability of the compound in MeOH/NH3 solution at pH >10 assessed as compound decomposition measured after 7 days by UV-RP-HPLC analysis

| SMILES | hepatic extraction ratio at 1 µM (in vitro [1]) | efflux ratio at 2 h (in vitro [2]) | half-life at 1 µM (in vitro [3]) [h] | Papp A→B at 2 h (in vitro [4]) [×10⁻⁶ cm/s] | logD (physchem [5]) | solubility thermodynamic at 24 h (physchem [6]) [µg/mL] | logD (physchem [7]) | solubility thermodynamic at 24 h (physchem [8]) [µg/mL] | degraded at 168 h (physchem [9]) [%] | Drug degradation [10] [%] |
| --- | --- | --- | --- | --- | --- | --- | --- | --- | --- | --- |
| CCOP(C)(=O)c1ccncc1 (centres undefined) | < 0.23 | 0.6 | > 2.17 | 54 | -0.7 | > 45 | -1.1 | > 30000 | – | – |
| CCOP(=O)(OCC)c1ccncc1 | < 0.23 | 0.7 | > 2.17 | 66 | 0.2 | > 50 | 0 | 29500 (≈ 137000 µM) | – | – |
| O=P1(c2ccc(C(F)(F)F)cc2)CCCC1 | < 0.23 | 0.7 | > 2.17 | 69 | 1.7 | > 59 | 2 | 24500 (≈ 98700 µM) | < 10 | < 10 |
| CCP(=O)(CC)c1ccc(C(F)(F)F)cc1 | < 0.23 | 0.7 | > 2.17 | 88 | 2 | > 60 | 2.3 | 22500 (≈ 89900 µM) | < 10 | < 10 |
| CP(C)(=O)c1ccc(C(F)(F)F)cc1 | < 0.23 | 0.5 | > 2.17 | 82 | 1.1 | > 52 | 1.5 | > 30000 | < 10 | < 10 |
| CNC(=O)c1ccc(C(F)(F)F)cc1 | – | 0.9 | – | 56 | 1.6 | > 51 | 1.9 | 200 (≈ 984 µM) | – | – |
| CC(C)P(=O)(c1ccc(C(F)(F)F)cc1)C(C)C | < 0.23 | 0.5 | > 2.17 | 110 | 2.8 | > 61 | 3.1 | 22200 (≈ 79800 µM) | < 10 | < 10 |
| Cc1ccc(NC(=O)c2ccc(C(=O)N(C)C)cc2)cc1Nc1nccc(-c2cccnc2)n1 | 0.37 | 2.2 | 1.12 | 19 | 2 | < 1 | 0.7 | – | – | – |
| CC(C)OP(=O)(OC(C)C)c1ccc(C(F)(F)F)cc1 | < 0.23 | 0.5 | > 2.17 | 84 | 4.2 | 29 (≈ 93.5 µM) | 4.3 | 400 (≈ 1290 µM) | < 10 | < 10 |
| CC(C)(C)NC(=O)c1ccc(C(F)(F)F)cc1 | – | 0.7 | – | 56 | 3.7 | 14 (≈ 57.1 µM) | 3.8 | 10 (≈ 40.8 µM) | – | – |
| CN=S(=O)(NC)c1ccc(C(F)(F)F)cc1 (centres undefined) | – | 0.5 | – | 81 | 1.8 | > 57 | 0.7 | 1200 (≈ 4760 µM) | – | – |
| O=P1(c2ccc(C(F)(F)F)cc2)CCOCC1 | < 0.23 | 0.7 | > 2.17 | 65 | 1.1 | > 65 | 1.4 | > 30000 | < 10 | < 10 |
| CN(C)S(=O)(=O)c1ccc(C(F)(F)F)cc1 | – | – | – | – | – | 47 (≈ 186 µM) | 3.4 | 90 (≈ 355 µM) | – | – |
| C[S+]([O-])c1ccc(C(F)(F)F)cc1 (centres undefined) | – | – | – | – | 1.4 | > 46 | 1.7 | 11100 (≈ 53300 µM) | – | – |
| CN=S(=O)(c1ccc(C(F)(F)F)cc1)N(C)C (centres undefined) | – | 0.8 | – | 70 | 2.9 | 49 (≈ 184 µM) | 2.2 | 1200 (≈ 4510 µM) | – | – |
| O=P1(c2ccc(C(F)(F)F)cc2)CCCCC1 | < 0.23 | 1.1 | > 2.17 | 49 | 2 | > 66 | 2.4 | 7700 (≈ 29400 µM) | < 10 | < 10 |
| CCOP(C)(=O)c1ccc(C(=O)Nc2ccc(C)c(Nc3nccc(-c4cccnc4)n3)c2)cc1 (centres undefined) | 0.45 | 9.9 | 0.8 | 5 | 2.2 | 51 (≈ 105 µM) | 0.9 | – | – | – |
| CS(=O)(=O)c1ccc(C(F)(F)F)cc1 | – | – | – | – | – | > 47 | – | 300 (≈ 1340 µM) | – | – |
| CNC(=O)c1ccc(C(=O)Nc2ccc(C)c(Nc3nccc(-c4cccnc4)n3)c2)cc1 | < 0.23 | 4.9 | > 2.17 | 8 | 1.7 | < 1 | 0.5 | – | – | – |
| Cc1ccc(NC(=O)c2ccc(C(N)=O)cc2)cc1Nc1nccc(-c2cccnc2)n1 | 0.25 | 8.1 | 1.95 | 3 | 1.5 | < 1 | 0.4 | – | – | – |
| CNS(=O)(=O)c1ccc(C(F)(F)F)cc1 | – | 0.9 | – | 36 | – | > 49 | – | 900 (≈ 3760 µM) | – | – |
| CC(C)(C)OC(=O)c1ccc(C(F)(F)F)cc1 | – | – | – | – | – | 7 (≈ 28.4 µM) | – | 20 (≈ 81.2 µM) | – | – |
| CN=S(C)(=O)c1ccc(C(F)(F)F)cc1 (centres undefined) | – | 1 | – | 67 | 1.7 | > 54 | 0.7 | 2400 (≈ 10100 µM) | – | – |
| COC(=O)c1ccc(C(F)(F)F)cc1 | – | – | – | – | – | < 1 | – | 20 (≈ 98 µM) | – | – |
| CCOP(C)(=O)c1ccc(C(F)(F)F)cc1 (centres undefined) | < 0.23 | 1 | > 2.17 | 69 | 2.3 | – | 2.5 | – | – | – |
| NS(=O)(=O)c1ccc(C(F)(F)F)cc1 | – | 0.6 | – | 83 | – | > 48 | – | 800 (≈ 3550 µM) | – | – |
| CCP(=O)(CC)c1ccncc1 | < 0.23 | 0.6 | > 2.17 | 19 | -1 | > 46 | < -1.8 | 11600 (≈ 63300 µM) | – | – |
| NC(=O)c1ccc(C(F)(F)F)cc1 | – | 1 | – | 68 | – | > 44 | 1.5 | 300 (≈ 1590 µM) | – | – |
| CCOC(=O)c1ccc(C(=O)Nc2ccc(C)c(Nc3nccc(-c4cccnc4)n3)c2)cc1 | > 0.88 | – | < 0.0833 | – | 3.5 | < 1 | 1.9 | – | – | – |
